These results are taken from patent publication US20150175655A1 (priority 2012, published 2015).

One assay has as its target T1, NS3 genotype 3a protease (UniProt Q81258).
T1 construct: Purified NS3 protease domain (amino acids 1-181) of the genotype 1b and 3a virus were generated as above; fused on or other part: N-terminal hexahistidine tag and rTEV protease cleavage site (vector p28-N6H-Tev-NS3(181)3)
T1 sequence (Q81258 1033-1663): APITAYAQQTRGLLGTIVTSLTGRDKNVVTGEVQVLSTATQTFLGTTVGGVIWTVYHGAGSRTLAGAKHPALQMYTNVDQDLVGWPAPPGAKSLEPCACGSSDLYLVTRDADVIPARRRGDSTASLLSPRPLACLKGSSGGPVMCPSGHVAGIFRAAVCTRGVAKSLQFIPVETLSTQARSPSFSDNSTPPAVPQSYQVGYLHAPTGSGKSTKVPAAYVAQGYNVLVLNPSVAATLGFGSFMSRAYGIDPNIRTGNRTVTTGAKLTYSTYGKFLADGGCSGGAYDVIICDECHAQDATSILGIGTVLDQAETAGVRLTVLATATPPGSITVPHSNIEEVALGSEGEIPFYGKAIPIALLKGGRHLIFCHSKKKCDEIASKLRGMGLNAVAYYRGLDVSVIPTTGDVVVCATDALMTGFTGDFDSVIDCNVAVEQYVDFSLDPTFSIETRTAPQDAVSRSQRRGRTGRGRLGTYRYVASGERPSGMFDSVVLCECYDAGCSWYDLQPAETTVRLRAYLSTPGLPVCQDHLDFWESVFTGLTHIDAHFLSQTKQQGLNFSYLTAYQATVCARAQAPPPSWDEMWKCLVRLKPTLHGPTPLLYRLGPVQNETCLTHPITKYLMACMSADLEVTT
Kind of assay: Ki determination, NS3 protease genotype 3a (fluorogenic depsipeptide substrate). The conditions noted are these: 200 pM enzyme, 20 μM NS4A peptide, 2 μM substrate, read-out: Ki 3A. The assay is classed as biochemical, hepatitis C virus. The source says:
The coding sequences for the genotype 3 HCV protease domain was amplified by RT-PCR using a Titan One Tube RT-PCR Kit (Roche, Indianapolis, Ind.) and RNA extracted from HCV-positive human serum (BBI Diagnostics, MA) using a QIAmp UltraSens Virus Kit (Qiagen, Valencia, Calif.). 5′ PCR primers were designed to encode N-terminal hexahistidine tags and to insert in-frame rTEV protease cleavage sites into the NS3 protease coding sequences. The resulting DNA fragments were cloned into pET28 yielding the expression vectors p28-N6H-Tev-NS3(181)1a and p28-N6H-Tev-NS3(181)3, respectively.
BL21AI bacteria (Invitrogen, Carlsbad, Calif.) were transformed with genotype 1b or 3 NS3 expression vectors and used to inoculate a 20 L fermentation vessel (Sartorius BBI System Inc., Bethlehem, Pa.), containing 18 L of fresh 2YT medium supplemented with 50 μg/mL kanamycin. When cell densities reached an OD600 of 1, the temperature of the cultures was reduced from 37° C. to 28° C. and induction was immediately initiated by the addition of 30 μM ZnSO4, 14 mM L-arabinose and 1 mM Isopropyl β-D-thiogalactoside (IPTG) final concentrations. Cells were harvested by centrifugation four hours post-induction and were stored as frozen pellets at −80° C. prior to NS3 protein purification.
Bacterial pellets collected from the expression of genotype 3 HCV NS3 protease were homogenized in Lysis Buffer (25 mM tris, pH 7.5 buffer containing 150 mM NaCl and 1 mM phenylmethanesulfonyl fluoride (PMSF)) and passed through a microfluidizer at 18,000 pounds/in^2. Homogenized cell lysates were centrifuged at 30,000×g for 30 minutes at 4° C. The resulting P1 pellets were washed with Wash Buffer I (25 mM tris, pH 7.5 containing 1% CHAPS) followed by centrifugation at 10,000×g for 30 minutes at 4° C. […] The resulting P3 pellets were resuspended in Solubilization Buffer (20 ml of 25 mM tris, pH 7.5 containing 150 mM NaCl and 8 M urea) and incubated at 4° C. for one hour. Solubilized proteins were passed through a 0.45 micron filter. Protein concentrations were measured and the solutions were adjusted to 40 mM DTT, incubated for 30 minutes at 4° C. and then quickly diluted into Refolding Buffer (25 mM tris, pH 8.5, 0.8 M Guanidine-HCl, 0.4 M L-Arginine, 10 mM ZnSO4) while stirring. Protein solutions were incubated at 4° C. overnight to allow refolding. Refolded proteases were centrifuged at 30,000×g for 10 minutes to remove residual precipitates. Final protein concentrations were then measured and the NS3 proteases were aliquoted, snap frozen in liquid nitrogen and stored at −80° C.
Purified NS3 protease domain (amino acids 1-181) of the genotype 1b and 3a virus were generated as above. The internally quenched fluorogenic depsipeptide substrate Ac-DED(Edans)-EEAbuψ[COO]ASK(Dabcyl)-NH2 and a synthetic peptide containing the hydrophobic core residues of the NS4A protein cofactor ([…]; NS4A peptide) were obtained from Anaspec, Inc. (San Jose, Calif.). Other chemicals and biochemicals were of reagent grade or better and were purchased from standard suppliers.
Reactions were run at room temperature in buffer consisting of 50 mM HEPES, 40% glycerol, 0.05% Triton X-100, 10 mM DTT, and 10% DMSO. The final assay solutions contained 50 pM NS3 genotype 1b protease or 200 pM genotype 3a protease, 20 μM NS4A peptide, and 4 μM substrate (genotype 1 b) or 2 μM substrate (genotype 3a). Inhibitor concentrations varied from 100 nM to 5 pM in 3-fold dilutions, and no-inhibitor controls were included.
Compound dilutions were made in DMSO at 20× final concentration. Reaction mixtures were prepared in 96-well assay plates. A solution of enzyme and NS4A peptide in assay buffer (25 μL volume with both reagents at 4× final concentration) was mixed with 45 μL assay buffer and 5 μL of either inhibitor or DMSO, and pre-incubated at room temperature for 1 hour. The reaction was started by addition of 25 μL substrate solution at 4× final concentration. […]
Regarding `CC[C@@H]1[C@@H]2CN(C(=O)[C@H](C(C)(C)C)NC(=O)O[C@@H]3[C@H]4CC[C@H](C4)[C@H]3CCCCCc3nc4ccc(OC)cc4nc3O2)[C@@H]1C(=O)N[C@]1(C(=O)NS(=O)(=O)C2(C)CC2)C[C@H]1C(F)F` [Example 37, (1R,4S,4aR,8S,11S,12S,13R,25aR)-8-tert-butyl-N-[(1R,2R)-2-(difluoromethyl)-1-{[(1-methylcyclopropyl)sulfonyl]carbamoyl}cyclopropyl]-12-ethyl-17-methoxy-6,9-dioxo-2,3,4,4a,6,7,8,9,12,13,21,22,23,24,25,25a-hexadecahydro-1H,11H-1,4:10,13-dimethanoquinoxalino[2,3-k][1,10,3,6]benzodioxadiazacyclononadecine-11-carboxamide], the Ki stood at 0.19 nM.

`CC[C@@H]1[C@@H]2CN(C(=O)[C@H](C(C)(C)C)NC(=O)O[C@]3(C)CCC[C@H]3CCCCCc3nc4ccc(OC)cc4nc3O2)[C@@H]1C(=O)N[C@]1(C(=O)NS(=O)(=O)C2CC2)C[C@H]1C(F)F` [Example 40, (3aR,7S,10S,11S,12R,24aR)-7-tert-butyl-N-[(1R,2R)-1-[(cyclopropylsulfonyl)carbamoyl]-2-(difluoromethyl)cyclopropyl]-11-ethyl-16-methoxy-3a-methyl-5,8-dioxo-1,2,3,3a,5,6,7,8,11,12,20,21,22,23,24,24a-hexadecahydro-10H-9,12-methanocyclopenta[18,19][1,10,3,6]dioxadiazacyclononadecino[11,12-b]quinoxaline-10-carboxamide]: the inhibition constant Ki came to 0.18 nM.

Turning to `COc1ccc2nc3c(nc2c1)O[C@H]1CN(C(=O)[C@H](C(C)(C)C)NC(=O)O[C@@]2(C)C[C@@H]2CCCCC3)[C@H](C(=O)N[C@]2(C(=O)NS(=O)(=O)C3(C)CC3)C[C@H]2C(F)F)[C@@H]1C` [Example 45, (1aS,5S,8S,9S,10R,22aS)-5-tert-butyl-N-[(1R,2R)-2-(difluoromethyl)-1-{[(1-methylcyclopropyl)sulfonyl]carbamoyl}cyclopropyl]-14-methoxy-1a,9-dimethyl-3,6-dioxo-1,1a,3,4,5,6,9,10,18,19,20,21,22,22a-tetradecahydro-8H-7,10-methanocyclopropa[18,19][1,10,3,6]dioxadiazacyclononadecino[11,12-b]quinoxaline-8-carboxamide], the inhibition constant (Ki) was 0.48 nM.

Consider `COc1ccc2nc3c(nc2c1)O[C@H]1CN(C(=O)[C@H](C(C)(C)C)NC(=O)O[C@@H]2C[C@H]2CCCCC3)[C@H](C(=O)N[C@]2(C(=O)NS(=O)(=O)C3(C)CC3)C[C@H]2C(F)F)[C@@H]1CC#N` [Example 50, (1aR,5S,8S,9S,10R,22aR)-5-tert-butyl-9-(cyanomethyl)-N-[(1R,2R)-2-(difluoromethyl)-1-{[(1-methylcyclopropyl)sulfonyl]carbamoyl}cyclopropyl]-14-methoxy-3,6-dioxo-1,1a,3,4,5,6,9,10,18,19,20,21,22,22a-tetradecahydro-8H-7,10-methanocyclopropa[18,19][1,10,3,6]dioxadiazacyclononadecino[11,12-b]quinoxaline-8-carboxamide], for which the Ki is more than 100 nM.

Take `CC[C@@H]1[C@@H]2CN(C(=O)[C@H](C(C)(C)C)NC(=O)O[C@]3(C)CCC[C@H]3CCCCCc3nc4ccc(OC)cc4nc3O2)[C@@H]1C(=O)N[C@]1(C(=O)NS(=O)(=O)C2CC2)C[C@H]1CC` [Example 51]: the inhibitory constant (Ki) turned out to be 0.84 nM.

Regarding `CC[C@@H]1[C@@H]2CN(C(=O)[C@H](C(C)(C)C)NC(=O)O[C@]3(C)CCC[C@H]3CCCCCc3nc4ccc(OC)cc4nc3O2)[C@@H]1C(=O)N[C@]1(C(=O)NS(=O)(=O)C2(C)CC2)C[C@H]1CCF` [Example 52, (3aR,7S,10S,11S,12R,24aR)-7-tert-butyl-11-ethyl-N-[(1R,2S)-2-(2-fluoroethyl)-1-{[(1-methylcyclopropyl)sulfonyl]carbamoyl}cyclopropyl]-16-methoxy-3a-methyl-5,8-dioxo-1,2,3,3a,5,6,7,8,11,12,20,21,22,23,24,24a-hexadecahydro-10H-9,12-methanocyclopenta[18,19][1,10,3,6]dioxadiazacyclononadecino[11,12-b]quinoxaline-10-carboxamide], the Ki is 1.3 nM.

As for `CC[C@@H]1[C@@H]2CN(C(=O)[C@H](C(C)(C)C)NC(=O)O[C@@H]3C[C@H]3CCCCC(F)(F)c3nc4ccccc4nc3O2)[C@@H]1C(=O)N[C@]1(C(=O)NS(=O)(=O)C2CC2)C[C@H]1C(F)F` [Example 53, (1aR,5S,8S,9S,10R,22aR)-5-tert-butyl-N-[(1R,2R)-1-[(cyclopropylsulfonyl)carbamoyl]-2-(difluoromethyl)cyclopropyl]-9-ethyl-18,18-difluoro-3,6-dioxo-1,1a,3,4,5,6,9,10,18,19,20,21,22,22a-tetradecahydro-8H-7,10-methanocyclopropa[18,19][1,10,3,6]dioxadiazacyclononadecino[11,12-b]quinoxaline-8-carboxamide], the inhibition constant Ki came to 0.09 nM.

Still in this assay, the particulars now being: read-out: Ki 3A, 200 pM enzyme, 20 μM NS4A peptide, 2 μM substrate.
Take `C=C[C@@H]1C[C@]1(NC(=O)[C@@H]1[C@H](C)[C@@H]2CN1C(=O)[C@H](C(C)(C)C)NC(=O)O[C@@H]1C[C@H]1CCCCCc1nc3ccc(OC)cc3nc1O2)C(=O)NS(=O)(=O)C1CC1` [Example 48, (1aR,5S,8S,9S,10R,22aR)-5-tert-butyl-N-{(1R,2S)-1-[(cyclopropylsulfonyl)carbamoyl]-2-ethenylcyclopropyl}-14-methoxy-9-methyl-3,6-dioxo-1,1a,3,4,5,6,9,10,18,19,20,21,22,22a-tetradecahydro-8H-7,10-methanocyclopropa[18,19][1,10,3,6]dioxadiazacyclononadecino[11,12-b]quinoxaline-8-carboxamide]: the inhibition constant (Ki) is 0.09 nM.

Consider `COc1ccc2nc3c(nc2c1)O[C@H]1CN(C(=O)[C@H](C(C)(C)C)NC(=O)O[C@@H]2C[C@@H]4C[C@@H]4[C@H]2CCCCC3)[C@H](C(=O)N[C@]2(C(=O)NS(=O)(=O)C3(C)CC3)C[C@H]2C(F)F)[C@@H]1C` [Example 49, (1aS,2aR,6S,9S,10S,11R,23aR,23bS)-6-tert-butyl-N-[(1R,2R)-2-(difluoromethyl)-1-{[(1-methylcyclopropyl)sulfonyl]carbamoyl}cyclopropyl]-15-methoxy-10-methyl-4,7-dioxo-1a,2,2a,4,5,6,7,10,11,19,20,21,22,23,23a,23b-hexadecahydro-1H,9H-8,11-methanocyclopropa[4′,5′]cyclopenta[1′,2′:18,19][1,10,3,6]dioxadiazacyclononade cino[11,12-b]quinoxaline-9-carboxamide], for which the Ki came out at 0.07 nM.

Usually Ki stands for the dissociation constant of the complex between target and ligand, obtained from inhibition or displacement.
